Laboratory results: US20150011623A1, “Pharmaceutical Composition Containing as Active Ingredient Extract From Bark of Liriodendron Tulipifera” (CHO DANG PHARM CO., LTD., priority 2012, published 2015)
Marks after values point to notes of the source that are not given here.

Tested on: acetic acid inducing stomach ulcer model
Experiment: acetic acid inducing stomach ulcer model
Assay type: in vivo, male white rats
Settings: for gastric lesion area: oral 30 mg/kg once a day for 10 days after operation; for lesion inhibition rate: oral 30 mg/kg once a day for 10 days, vs control group
Source text: Efficacy of extract from bark of Liriodendron tulipifera obtained in Preparation Example 1 has been measured according to acetic acid inducing stomach ulcer model. Only solvent has been administered into control group, while extract from the bark of Liriodendron tulipifera has been administered into experimental group. Further, ranitidine and rebamipide used for drug for treating stomach ulcer have been also administered into experimental group. The experiment has been carried out according to the method disclosed in Okabe and Pfeifferi, Did. Dis. 17, pp. 619-628, 1972. 250 g weights of male white rats have been anesthetized with ether and the stomach has been exposed. 50 μl of 20% acetic acid has been injected into the subserosa in fundus of stomach using microliter syringe. Then, the abdomen of rat has been sutured. The drug has been orally administered into the rats at 10:00 am once a day for 10 days after operation. After 4 hour from final administration, animals have been sacrificed by ether. After removing the stomach of rat, the stomach has been spread out. The lesion area has been measured using the photo from digital camera. Computer program Image J 1.38 (NIH, Bethesda, Md.) has been applied for measuring gastric lesion area (mm^2) The lesion inhibition rate and 50% effective dose (ED50) have been calculated as the same manner of HCl-EtOH model.

SMILES | gastric lesion area | lesion inhibition rate [%]
CNC(=C[N+](=O)[O-])NCCSCc1ccc(CN(C)C)o1 [ranitidine] | 34.8 ± 4.83* mm^2 | 47.1
O=C(NC(Cc1cc(=O)[nH]c2ccccc12)C(=O)O)c1ccc(Cl)cc1 (stereo not shown) [rebamipide] | 40.1 ± 7.43 mm^2 | 39.1
